Experimental data published in PMC3140810 (International Journal of Women's Health, 2011).

Biological target: CYP3A4 (Homo sapiens, UniProt P08684)
Test: LC-MS/MS of 1-hydroxymidazolam, human liver microsomes
Assay type: biochemical

Sequence of CYP3A4 (P08684 2-503): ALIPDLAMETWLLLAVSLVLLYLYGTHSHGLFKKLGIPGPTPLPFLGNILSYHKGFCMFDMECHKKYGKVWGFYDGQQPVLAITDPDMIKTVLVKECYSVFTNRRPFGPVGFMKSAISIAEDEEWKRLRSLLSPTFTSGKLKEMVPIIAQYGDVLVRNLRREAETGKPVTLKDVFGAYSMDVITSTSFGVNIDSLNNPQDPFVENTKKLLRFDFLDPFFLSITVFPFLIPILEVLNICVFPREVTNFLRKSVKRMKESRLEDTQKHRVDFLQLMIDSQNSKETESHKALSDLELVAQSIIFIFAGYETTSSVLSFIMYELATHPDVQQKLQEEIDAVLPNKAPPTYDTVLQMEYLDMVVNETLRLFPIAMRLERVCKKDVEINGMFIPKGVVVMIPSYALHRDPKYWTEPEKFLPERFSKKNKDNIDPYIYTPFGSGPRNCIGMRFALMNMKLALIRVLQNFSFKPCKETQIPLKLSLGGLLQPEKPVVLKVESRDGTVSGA

O=c1c(-c2ccc(O)cc2)coc2cc(O)cc(O)c12 [genistein]
Liver microsome inhibition genistein (25 μM): 19%
